Tests used:
[1] = biological target: T1, DDX3X helicase activity (Homo sapiens, UniProt O00571); test: FRET-based DDX3X helicase assay; type: biochemical; conditions: for IC50: FRET helicase assay, recombinant DDX3X, read-out: IC50 ± SD, DDX3X anti-enzymatic (helicase) activity
T1 construct: Recombinant his-tagged human full length DDX3X; His tag; made in house; host or cells: ShuffleT7 E. coli
Protocol: Recombinant his-tagged human full length DDX3X cloned the E. coli expression vector pET-30a(+). ShuffleT7 E. coli cells were transformed with the plasmid and grown at 37 °C up to OD600 = 0.7. DDX3X expression was induced with 0.5 mM IPTG at 15 °C O/N. Cells were harvested by centrifugation, lysed, and the crude extract was centrifuged at 100,000 g for 60 min at 4 °C in a Beckman centrifuge before being loaded onto a FPLC Ni-NTA column (GE Healthcare, Chicago, IL, USA). The column was equilibrated in Buffer A (50 mM Tris-HCl pH 8.0, 250 mM NaCl, 25 mM Imidazole and 20% glycerol). After extensive washing in Buffer A, the column was eluted with a linear gradient in Buffer A from 25 to 250 mM Imidazole. Proteins in the eluted fractions were visualized on SDS-PAGE and tested for the presence of DDX3X by Western blot with anti-DDX3X A300-475A (Bethyl Laboratories, Montgomery, TX, USA) at 1:4000 dilution in 5% milk. Fractions containing the purest DDX3X protein were pooled and stored at −80 °C.
The dsRNA substrate for the helicase assay was prepared by hybridizing two ss RNA oligonucleotides with the following sequences: • Fluo-FAM 5′ […] 3′ • Qu-BHQ1 5′ […] 3′ • DNA capture 5′ […] 3′.
The sequence in Fluo-FAM complementary to Qu-BHQ1 is underlined. Fluo-FAM carries a 6-carboxyfluorescein fluorophore at its 3′ end, while Qu-BHQ1 carries a Black Hole quencher group at its 5′ end. The DNA capture oligonucleotide is complementary to the Qu-BHQ1 oligonucleotide, but it bears no modifications. A helicase assay using the dsRNA substrate was performed in 20 mM TrisHCl (pH 8), 70 mM KCl, 2 mM MgCl2, 2 mM dithiothreititol, 12 units RNasin (Promega), 2 mM ATP, 50 nM dsRNA, and 100 nM capture strand in 20 μL of reaction volume. The unwinding reaction was started by adding 60 pmols of DDX3X recombinant protein and carried out at 37 °C for 40 min using a LightCycler 480 (Roche, Basel, Switzerland). The fluorescence intensity was recorded every 30 s. Values of fluorescence signal in the presence or in the absence of inhibitor molecules were analyzed by linear interpolation, and the corresponding slope values were used to determine the apparent unwinding rate.
The IC50 values have been calculated from dose–response curves. Data (in triplicate) were plotted and analyzed by least-squares nonlinear regression, according to the method of Marquardt–Levenberg, with the computer program GraphPad Prism 6.0. Data were fitted to the following equation:Eobs = Emax/(1 + (IC50/[I])^n)(1) where E(obs) is the observed enzymatic activity in the presence of each inhibitor dose [I]; E(max) is the maximal enzymatic activity in the absence of the inhibitor; and n is an exponential term to take into account sigmoidal dose–response curves.
All the compounds were tested for their ability to inhibit the helicase activity of DDX3X using a fluorescence resonance energy transfer (FRET)-based assay, as previously described. Values of fluorescence signal in the presence or in the absence of inhibitor molecules were analyzed by linear interpolation (for details, see Methods 2.3.2).

[2] = system: U251 cells; test: MTS cytotoxicity assay, U251 cells; type: cell-based; conditions: 72 h
Protocol: (§1) For CellTiter 96® Aqueous One Solution Cell Proliferation Assay (MTS) (Promega, Madison, WI, USA), cells were seeded at 5 × 10^3 per well in 96-well plates in quadruplicate together a control with no cells to evaluate the background. After 24 h, the culture medium was removed, and fresh medium containing increasing concentrations of chemical compounds was added to cells. […] DMSO was the vehicle used for dilution of the compounds, and its final concentration on cells was less than 0.2%. Medium-only containing wells were included as controls. Cells were incubated with compounds at different concentrations for 72 h, then, 20 µL of CellTiter 96® AQueous One Solution Reagent was added into each well. After 3 h at 37 °C in a humidified, 5% CO2 atmosphere, the absorbance at 492 nm was recorded using an EZREAD400 (Biochrom, Cambridge, United Kingdom) plate reader. The average 490 nm absorbance from the “no cell” control wells was subtracted from all other values to yield background-corrected absorbance. Dose–response curves and CC50 values have been calculated by plotting the absorbance data as a function of inhibitor concentrations and fitting the data by least-squares nonlinear regression, according to the method of Marquardt–Levenberg, with the computer program GraphPad Prism 6.0.
(§2) Cells were incubated with a scalar concentration of DDX3X inhibitors, and after 72 h of treatment, cell viability was assessed by cytotoxicity assay. […] Compounds 4, 6, and BA103 were also evaluated against BJ primary fibroblasts; compound 4 has a cytotoxicity value of 84.7 μM; on the contrary, compounds 6 and BA103 were not toxic up to 200 μM concentration. This further excluded a possible nonspecific cytotoxic effect. […] Due to its interesting profile, compound BA103 was further tested against additional pulmonary (A549), breast (MDA-MB-231), colorectal (HCT-116), osteosarcoma (U2OS), rhabdomyosarcoma (RD18), GBM (DBTRG, U87, and U251) and medulloblastoma (DAOY) cancer cell lines.
(§3) Figure 5 Cytotoxicity of selected compounds. Compounds were assayed on DU-145, PC3, HepG2, Huh-7, HN6, U251, and U87 cell lines. The concentration of the compound, which reduced the number of viable cells by 50% (CC50), was determined by dose–response curve, and the mean CC50 value for each cell line was calculated by triplicate assays (raw data from U87 and U251 cells with dose–response curves used for the calculation of CC50 in Table S1 and Figure S2).
(§4) Table S1: Raw data of optical absorbance at 490 nm from MTS assay in U87 and U251 cells. Tables contain
(§5) means with SD of at least 5 different values that were used for preparation of figure 5.

[3] = system: panel of cancer cell lines (Du-145, PC3, HepG2, Huh-7, HN6, U87 and U231); test: Cytotoxicity screen on panel of cancer cell lines; type: cell-based; conditions: 72 h of treatment
Protocol: For CellTiter 96® Aqueous One Solution Cell Proliferation Assay (MTS) (Promega, Madison, WI, USA), cells were seeded at 5 × 10^3 per well in 96-well plates in quadruplicate together a control with no cells to evaluate the background. After 24 h, the culture medium was removed, and fresh medium containing increasing concentrations of chemical compounds was added to cells. The fixed final concentrations were 0.1 μM, 1 μM, 10 μM, and 100 μM. DMSO was the vehicle used for dilution of the compounds, and its final concentration on cells was less than 0.2%. Medium-only containing wells were included as controls. […] After 3 h at 37 °C in a humidified, 5% CO2 atmosphere, the absorbance at 492 nm was recorded using an EZREAD400 (Biochrom, Cambridge, United Kingdom) plate reader. The average 490 nm absorbance from the “no cell” control wells was subtracted from all other values to yield background-corrected absorbance. Dose–response curves and CC50 values have been calculated by plotting the absorbance data as a function of inhibitor concentrations and fitting the data by least-squares nonlinear regression, according to the method of Marquardt–Levenberg, with the computer program GraphPad Prism 6.0.
Cells were incubated with a scalar concentration of DDX3X inhibitors, and after 72 h of treatment, cell viability was assessed by cytotoxicity assay. […]

[4] = system: U87 cells; test: MTS cytotoxicity assay, U87 cells; type: cell-based; conditions: 72 h
Protocol: as §1, §2, §3, §4, §5

T1 sequence (O00571 whole entry): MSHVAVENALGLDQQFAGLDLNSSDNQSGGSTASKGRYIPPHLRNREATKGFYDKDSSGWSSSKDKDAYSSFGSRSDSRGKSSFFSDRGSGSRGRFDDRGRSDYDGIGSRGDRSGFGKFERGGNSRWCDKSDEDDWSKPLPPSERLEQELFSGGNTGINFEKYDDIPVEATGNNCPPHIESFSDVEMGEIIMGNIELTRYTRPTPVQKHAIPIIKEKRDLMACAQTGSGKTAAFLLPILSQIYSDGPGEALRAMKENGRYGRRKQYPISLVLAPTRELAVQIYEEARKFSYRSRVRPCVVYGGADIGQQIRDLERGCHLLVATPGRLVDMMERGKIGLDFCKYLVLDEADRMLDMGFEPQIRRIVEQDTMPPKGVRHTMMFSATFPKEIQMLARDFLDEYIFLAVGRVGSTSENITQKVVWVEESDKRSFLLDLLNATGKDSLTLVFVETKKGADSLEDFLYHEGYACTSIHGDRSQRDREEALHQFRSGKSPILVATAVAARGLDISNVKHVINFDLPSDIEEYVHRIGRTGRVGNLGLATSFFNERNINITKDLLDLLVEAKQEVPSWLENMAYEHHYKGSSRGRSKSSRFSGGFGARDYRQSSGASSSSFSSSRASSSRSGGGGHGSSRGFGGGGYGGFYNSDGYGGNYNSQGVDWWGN

For `CCCCn1nnc(-c2ccc(NC(=O)Nc3ccccc3C)cc2)n1` [Compound 5, 1-(4-(2-Butyl-2H-tetrazol-5-yl)phenyl)-3-(o-tolyl)urea], which “times less active than hit compound 1 (loss of activity)” value ([1]; DDX3X helicase inhibition relative to compound 1) is on record?
Its value is 16 times.

Which IC50 [1] does the source give for `CC(C)CCc1cn(-c2ccc(NC(=O)Nc3ccccc3C(F)(F)F)cn2)nn1` [Compound 9, 1-(6-(4-Isopentyl-1H-1,2,3-triazol-1-yl)pyridin-3-yl)-3-(2-(trifluoromethyl)phenyl)urea] here?
The IC50 was 1100 ± 200 nM.

“1-(4-(4-Isopentyl-1H-1,2,3-triazol-1-yl)phenyl)-3-(4-methylpyridin-3-yl)urea [Compound 13]” was tested. Which IC50 [1] did it give?
The IC50 was 1500 ± 300 nM.

For “1-(4-(4-Butyl-1H-1,2,3-triazol-1-yl)phenyl)-3-(4-methylpyridin-3-yl)urea [Compound 14]”, which IC50 [1] is on record?
The IC50 was 2000 ± 300 nM.

With `CCCCc1cc(-c2ccc(NC(=O)Nc3ccccc3C(F)(F)F)cc2)no1` [Compound 2, 1-(4-(5-Butylisoxazol-3-yl)phenyl)-3-(2-(trifluoromethyl)phenyl)urea] as the compound, how does the “solubility in assay medium” value ([1]; during the enzymatic assay) read?
Its value is “precipitated from medium”.

Which results are given for `CCCCc1nnc(-c2ccc(NC(=O)Nc3ccccc3C(F)(F)F)cc2)s1` [Compound 8, 1-(4-(5-Butyl-1,3,4-thiadiazol-2-yl)phenyl)-3-(2-(trifluoromethyl)phenyl)urea]?
mean absorbance at 490 nm (MTS) ([2]; U251, 0,01 uM): 2,363; mean absorbance at 490 nm (MTS) ([2]; U251, 0,1 uM): 2,282; mean absorbance at 490 nm (MTS) ([2]; U251, 1 uM): 2,177; mean absorbance at 490 nm (MTS) ([2]; U251, 10 uM): 1,806; mean absorbance at 490 nm (MTS) ([2]; U251, 100 uM): 0,786; IC50 [1]: 50000 ± 7000 nM; growth inhibition in all the cell lines tested [3]: poorly effective against all the cell lines tested; mean absorbance at 490 nm (MTS) ([4]; U87, 0,01 uM): 2,267; mean absorbance at 490 nm (MTS) ([4]; U87, 0,1 uM): 1,994; mean absorbance at 490 nm (MTS) ([4]; U87, 1 uM): 1,965; mean absorbance at 490 nm (MTS) ([4]; U87, 10 uM): 1,945; mean absorbance at 490 nm (MTS) ([4]; U87, 100 uM): 1,054
